Reference: article PMC11530130, “Peripherally restricted PICK1 inhibitor mPD5 ameliorates pain behaviors in murine inflammatory and neuropathic pain models” (JCI Insight, 2024)
Values joined by “and” are separate entries in the source; they are usually repeats but may differ in a detail not shown here. Equal entries are not always repeated.

Key:
Type in all cases: in vivo, mouse
[1] = test system: mice, CFA model of inflammatory pain; assay: CFA model, elevated plus maze
[2] = test system: mice, spared nerve injury (SNI) model; assay: Ultrasonic vocalisation (USV) recordings at 37 kHz, SNI mice; conditions: for Ultrasonic vocalisations, individual animals (Fig 5E): SNI mice
Method: Time spent in each compartment was […]
compartment was used to define three even groups.
Conditioning (DAY 2-9): Mice were injected s.c. with PBS, morphine (10 mg/kg) (RH Pharmacy, Denmark, Vnr. 475249), or 10 μmol/kg mPD5 immediately before being placed in and confined to the appropriate compartment for 40 min. Drug was paired to the least-preferred compartment, conditioning was alternated so that mice were never placed in the same compartment two days in a row, and the day on which they were exposed to drug was […]
Preference test (DAY 10): Mice were allowed to freely move between the two compartments […]
Ultrasonic vocalisation (USV) recordings.
Mice were left in Med-Associates square behavioral chambers (27 cm x 27 cm) to freely roam around for 60 min, four days in a row. […] On day three, both control and SNI mice were placed directly in the chambers and recorded for 60 min. On day four, control mice were injected s.c. with PBS, and SNI mice were injected with either 10 μmol/kg mPD5 or PBS immediately before being placed in the chambers and recorded for 60 min. The recordings were analyzed using the Avisoft SASLab Pro software (Version 5.02.07, Avisoft Bioacoustics) as described in (12), applying a fast fourier transformation (FFT) (1024 FTT length, 100% frame size, Blackman window, and 87.5% time window overlap). […]
To compare pain-relevant vocalizations, only short and constant USVs of 37 kHz were counted […]
Mice were pretreated with 10 μmol/kg mPD5, 10 mg/kg morphine (RH Pharmacy, Denmark, Vnr. 475249), or PBS 45 min before habituation to observation container (glass cylinder surrounded by mirrors on 2 sides) for 15 min. […] Mice were recorded for three min after i.pl. injection with capsaicin and euthanized the same day. Mice were scored manually for the amount of time spent paw licking within three min after capsaicin administration. […]

naive mice = assay: Barnes maze (spatial learning and memory, reversal learning); conditions: for Barnes maze, count per hole (Fig S8D) / Barnes maze, count per hole (Fig S8E): individual animals;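 as to Barnes maze, count per hole (Fig S8D): Nose pokes per hole during a probe trial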;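 as to Barnes maze, count per hole (Fig S8E): Nose pokes per hole during a probe trial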
Method: Spatial learning and memory.
On each day, animals were moved from the housing facility to the experimental room and allowed to acclimatize for at least 60 min before initiation of the experiment. All drugs used (PBS or 10 μmol/kg mPD5) were injected s.c. in a 10 μl/g body weight volume 60 min before first placement on the Barnes’ maze on day 1-9 of the experiment. The experiment was divided into Barnes maze habituation, spatial acquisition (training) and probe trials. During habituation to the Barnes maze itself, animals were placed under a cylinder in the middle of the Barnes maze for 10 seconds and then gently guided to the escape box and left there for two min. During spatial acquisition (training), each mouse was placed under a cylinder in the middle of the Barnes maze for 10 sec followed by up to three min of free exploration of the Barnes maze.
Once the animal entered the escape cage, it was left there for one min before being transferred back to its home cage for 15-20 min. This training was performed four times per day per mouse.
During probe trials the reference memory of the animal was tested by placing each mouse under a cylinder in the middle of the Barnes maze for 10 sec followed by 90 sec of free exploration of the Barnes maze with no escape cage. On days 6-8, the escape hole was moved 90 degrees, and all mice went through the second bout of training. On day nine, a second probe trial was performed testing the reversal learning of the mice. […]
Single exposure place preference. […]

## CCCCCCCCCCCCCC(=O)N(CCOCCOCCC(=O)N[C@@H](Cc1c[nH]cn1)C(=O)N[C@@H](Cc1c[nH]c2ccccc12)C(=O)N[C@@H](CC(C)C)C(=O)N[C@@H](CCCCN)C(=O)N[C@H](C(=O)O)C(C)C)CCOCCOCCC(=O)N[C@@H](Cc1c[nH]cn1)C(=O)N[C@@H](Cc1c[nH]c2ccccc12)C(=O)N[C@@H](CC(C)C)C(=O)N[C@@H](CCCCN)C(=O)N[C@H](C(=O)O)C(C)C [mPD5, myristoyl-NPEG4-(HWLKV)2]
[1]; 1 hour after s.c. 10 μmol/kg
  time spent in open arms relative to sham, individual mice: 105.738 and 52.6613 and 140.768 and 68.9703 and 55.3027 and 160.227 and 143.859 and 0 and 156.14 and 28.0701 and 63.1578
[1]; s.c. 10 μmol/kg
  time spent in the open arms of the elevated plus maze: no longer significantly different from the naive mice
[2]; Baseline
  Ultrasonic vocalisations, individual animals (Fig 5E): 4 and 10 and 8 and 9 and 7 and 5
[2]; min 60-120 post injection
  Ultrasonic vocalisations, individual animals (Fig 5E): 3 and 8 and 1 and 7
[2]; SNI, female mice, s.c. 10 μmol/kg, to the level of the naive mice
  effect on SNI-induced increase of vocalizations at 37 kHz: fully reversed
Naive mice; hole position 1
  Barnes maze, count per hole (Fig S8D): 2 (3×) and 1 (2×) and 0 (2×) and 3 (2×)
  Barnes maze, count per hole (Fig S8E): 3 (6×) and 1 (2×) and 2
Naive mice; hole position 2
  Barnes maze, count per hole (Fig S8D): 0 (5×) and 1 (3×) and 2
  Barnes maze, count per hole (Fig S8E): 0 (6×) and 1 (3×)
Naive mice; hole position 3
  Barnes maze, count per hole (Fig S8D): 1 (4×) and 2 (3×) and 0 (2×)
  Barnes maze, count per hole (Fig S8E): 1 (7×) and 0 and 2
Naive mice; hole position 4
  Barnes maze, count per hole (Fig S8D): 0 (4×) and 2 (2×) and 1 (3×)
  Barnes maze, count per hole (Fig S8E): 1 (6×) and 2 (2×) and 0
Naive mice; hole position -1
  Barnes maze, count per hole (Fig S8D): 2 (3×) and 3 and 1 (2×) and 6 and 0 and 4
  Barnes maze, count per hole (Fig S8E): 3 (4×) and 0 (2×) and 1 and 2 and 4
Naive mice; hole position -2
  Barnes maze, count per hole (Fig S8D): 0 (8×) and 1
  Barnes maze, count per hole (Fig S8E): 0 (4×) and 1 (4×) and 2
Naive mice; hole position -3
  Barnes maze, count per hole (Fig S8D): 0 (6×) and 1 (2×) and 2
  Barnes maze, count per hole (Fig S8E): 1 (5×) and 0 (2×) and 2 (2×)
Naive mice; hole position -4
  Barnes maze, count per hole (Fig S8D): 0 (6×) and 2 (2×) and 1
  Barnes maze, count per hole (Fig S8E): 1 (6×) and 0 (2×) and 2
Naive mice; hole position -5
  Barnes maze, count per hole (Fig S8D): 0 (6×) and 2 (2×) and 1
  Barnes maze, count per hole (Fig S8E): 1 (4×) and 0 (2×) and 2 (2×) and 3
Naive mice; hole position -6
  Barnes maze, count per hole (Fig S8D): 0 (6×) and 3 and 1 (2×)
  Barnes maze, count per hole (Fig S8E): 1 (3×) and 0 (2×) and 2 (3×) and 3
Naive mice; hole position -7
  Barnes maze, count per hole (Fig S8D): 0
  Barnes maze, count per hole (Fig S8E): 0
Naive mice; hole position Goal
  Barnes maze, count per hole (Fig S8D): 2 (2×) and 3 (2×) and 6 (2×) and 1 (2×) and 4
  Barnes maze, count per hole (Fig S8E): 4 (3×) and 3 (3×) and 2 (2×) and 1
Naive mice; s.c. 10 μmol/kg 60 minutes before placement, after 4 days of training
  latency to reach target and total distance moved, probe test day 5: no difference
Naive mice; s.c. 10 μmol/kg 60 minutes before placement, probe test day 9
  latency to reach the target and total distance moved following reversal learning: no difference was observed
Naive mice; s.c. 10 μmol/kg, both probe tests
  distribution of nose pokes between the holes: did not differ between groups
